Values joined by “and” are separate entries in the source; they are usually repeats but may differ in a detail not shown here. Identical values can stand only once.
What was measured:
Set-up in all cases: species or system wheat
Settings in all cases: in vivo
[1] = test system: DON toxin
[2] = test system: DON toxin; remark: listed apart in the source
[3] = test system: DON toxin; remark: listed apart in the source
[4] = test system: DON toxin; remark: listed apart in the source
[5] = test system: DON toxin; remark: listed apart in the source
[6] = test system: toxin synthesis capability of thalli

| Compound | Grain Toxin Content mg of DON/kg of grain [1] | Grain Toxin Content [2] | Grain Toxin Content (mg of DON/Kg of grain) [3] | Rate of Decrease in Toxin Content in Grains (%) [3] [%] | Toxin Reduction Percentage % [1] | DON Reduction Percentage [4] [%] | toxin contamination level of grains [5] | DON Synthesis Capability [6] |
| --- | --- | --- | --- | --- | --- | --- | --- | --- |
| OCC1=CC(N[C@H]2C[C@H](CO)[C@@H](OC3O[C@H](CO)[C@@H](O)[C@H](O)[C@H]3O)C(O)[C@H]2O)[C@H](O)[C@@H](O)C1O (stereo partly shown) [Jinggangmycin, jinggangmycin A] | 2.86 mg of DON/kg of grain and 3.82 mg of DON/kg of grain and 4.02 mg of DON/kg of grain and 4.14 mg of DON/kg of grain | 2.89 μg/g of kernels and 3.24 μg/g of kernels and 3.86 μg/g of kernels and 4.2 μg/g of kernels and 4.77 μg/g of kernels |  |  |  |  |  |  |
| COC(=O)Nc1nc2ccccc2[nH]1 [Carbendazim, carbendazim] | 2.95 mg of DON/kg of grain |  | 4.35 | 32.7 | 34.73% | 55.00 | 4.4 mg/kg of grains | 28.94 |
| Tebuconazole | 1.89 mg of DON/kg of grain and 2.14 mg of DON/kg of grain and 2.4 mg of DON/kg of grain and 2.8 mg of DON/kg of grain | 4.02 μg/g of kernels and 3.29 μg/g of kernels and 2.14 μg/g of kernels and 2.08 μg/g of kernels |  |  | 58.19% and 52.65% and 46.90% and 38.05% |  |  | 19.88 and 18.35 and 18.95 and 19.02 and 19.41 |

— US10588316B2 (priority 2015, dated 2020)
